Measurements taken from patent US5559128A, “3-substituted piperidines promote release of growth hormone” (Merck & Co., Inc., priority 1995, dated 1996).

Experiment: Log P
Settings: Log P (min), Table I

Row | Structure (SMILES) | chromatographic logP
1 | CC(C)(N)C(=O)N[C@H](Cc1c[nH]c2ccccc12)C(=O)N1CCCC(N(c2ccccc2)S(=O)(=O)c2ccccc2)C1 (single isomer, unassigned) [3b] | 3.2
2 | CC(C)(N)C(=O)N[C@H](Cc1c[nH]c2ccccc12)C(=O)N1CCCC(N(Cc2ccccc2)S(=O)(=O)c2ccccc2)C1 (some centres unmarked) [3a] | 3.6
